Consider 8 molecules from ChEMBL document CHEMBL1201862, “PubChem BioAssay data set” (2004).

The target in experiment [1] is T1, Mu-type opioid receptor (Homo sapiens, UniProt P35372). In words: mu opioid receptor activators, image-based, SAR follow-up (AID 2352). In kind it is functional.
The target in experiment [2] is T2, Kappa-type opioid receptor (Homo sapiens, UniProt P41145). Description: kappa opioid receptor blockers, cell-based, luminescence, beta-arrestin, SAR follow-up (AID 2285). In kind it is functional.
The target in experiment [3] is T2, Kappa-type opioid receptor. In words: kappa opioid receptor activation potency – imaging, image-based, SAR follow-up (AID 2359). The class given is functional.
Experiment [4] concerns the target T3, Delta-type opioid receptor (Homo sapiens, UniProt P41143). Description: delta opioid receptor blockers – image-based, SAR follow-up (AID 2357). In kind it is functional.
The target of experiment [5] is T2, Kappa-type opioid receptor. Description: kappa opioid receptor blockers, image-based, SAR follow-up (AID 2348). The class given is functional.
Experiment [6] concerns the target T1, Mu-type opioid receptor. In words: mu opioid receptor blockers – image-based, SAR follow-up (AID 2420).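 Note: compounds added before stimulation of receptor with agonist DAMGO.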 In kind it is functional.
In experiment [7] the target is T3, Delta-type opioid receptor. In words: DOR agonists, SAR follow-up, image-based (AID 2370). In kind it is functional.
A short description of experiment [8]: protection from phage-mediated lysis, alamar blue read-out – E. coli UTI89, K1F phage, bacterial capsule biogenesis inhibitors (AID 488966). In kind it is functional. On the technique in general: The colour change of resazurin is a common sign of viable cells or microbes.
The next experiment concerns the target Phosphomannomutase 2 (Homo sapiens, UniProt O15305). In words: Counter screen SAR assay for PMM2 inhibitors via a fluorescence intensity assay. [Related pubchem assays (depositor defined):AID1545, AID1574]. For orientation: The purpose of a counterscreen is to sort out artefacts and off-target activity.
The target of experiment [9] is T4, Mannose-6-phosphate isomerase (Homo sapiens, UniProt P34949).
T4 sequence (P34949 whole entry): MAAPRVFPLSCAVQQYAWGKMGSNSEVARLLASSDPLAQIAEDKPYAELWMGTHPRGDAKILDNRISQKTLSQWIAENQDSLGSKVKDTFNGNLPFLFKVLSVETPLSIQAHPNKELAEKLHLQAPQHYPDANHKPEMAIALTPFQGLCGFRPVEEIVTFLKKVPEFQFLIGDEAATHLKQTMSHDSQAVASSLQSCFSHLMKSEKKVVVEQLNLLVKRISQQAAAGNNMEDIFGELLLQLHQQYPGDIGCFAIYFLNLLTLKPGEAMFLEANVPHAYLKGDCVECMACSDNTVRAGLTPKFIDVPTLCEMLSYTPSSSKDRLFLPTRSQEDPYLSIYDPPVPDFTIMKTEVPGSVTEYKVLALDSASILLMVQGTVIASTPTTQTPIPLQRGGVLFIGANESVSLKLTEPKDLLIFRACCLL
Description: phosphomannose isomerase inhibition – biochemical, fluorescence intensity, confirmation (AID 1535).

For experiment [10], the target named is T5, Alkaline phosphatase, tissue-nonspecific isozyme (Homo sapiens, UniProt P05186).
T5 sequence (P05186 whole entry): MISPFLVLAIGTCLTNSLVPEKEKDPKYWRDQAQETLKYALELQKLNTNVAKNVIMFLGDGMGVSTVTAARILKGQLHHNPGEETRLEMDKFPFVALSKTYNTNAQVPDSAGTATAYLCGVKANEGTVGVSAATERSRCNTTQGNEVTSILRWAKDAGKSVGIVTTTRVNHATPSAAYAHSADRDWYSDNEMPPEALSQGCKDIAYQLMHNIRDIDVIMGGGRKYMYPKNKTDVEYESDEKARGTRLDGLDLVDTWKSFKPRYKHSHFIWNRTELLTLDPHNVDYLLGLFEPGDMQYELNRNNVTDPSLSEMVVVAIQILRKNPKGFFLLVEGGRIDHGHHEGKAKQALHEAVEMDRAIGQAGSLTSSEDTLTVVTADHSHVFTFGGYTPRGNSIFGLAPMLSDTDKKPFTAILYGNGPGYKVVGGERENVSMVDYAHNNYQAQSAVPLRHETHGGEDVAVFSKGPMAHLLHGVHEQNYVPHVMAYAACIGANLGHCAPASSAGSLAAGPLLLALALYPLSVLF
Description: potency against alkaline phosphatase TNAP – biochemical, luminescent, dose response, SAR follow-up (AID 1056).

Experiment [11] addresses Phosphoethanolamine/phosphocholine phosphatase (Homo sapiens, UniProt Q8TCT1). Description: SAR assay for compounds that inhibit PHOSPHO1. [Related pubchem assays (depositor defined):AID1545, AID1565, AID1574].
Experiment [12] deals with Diphosphomevalonate decarboxylase (Streptococcus pneumoniae serotype 2 (strain D39 / NCTC 7466), UniProt Q9FD53). Description: diphosphomevalonate decarboxylase inhibitor confirmation – biochemical, cuvette format, coupled NADH fluorescence (AID 1028). The class given is functional.
Experiment [13] concerns the target G-protein coupled receptor 55 (Homo sapiens, UniProt Q9Y2T6). Description: selective activators of receptor GPR55 – imaging, U2OS cells, beta-arrestin-GFP redistribution, primary screen (AID 1961). In kind it is functional.
Experiment [14] deals with BJ. In words: BJ-TERT fibroblast viability loss – cell-based, RAS-independent, luminescence, dose response (AID 1933). The class given is functional. The note with it: Homo sapiens.
Experiment [15] in a line: DRD fibroblast viability loss – cell-based, non-viral oncogenic, luminescence, dose response (AID 1934). In kind it is functional. The note with it: Homo sapiens.
The test system of experiment [16] is BJ. Description: cells. The class given is functional, cell-based. The note with it: Homo sapiens.
Experiment [17] concerns BJ. Description: growth inhibition of engineered Ras-driven BJ cells – cell-based, alamar blue fluorescence, cherrypicked samples, dose response (AID 2631).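 Note: confirmatory dose-response assay in RAS-dependent BJ fibroblasts engineered with TERT, LT and ST, with cytotoxicity read by fluorescence.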 In kind it is functional. The note with it: Homo sapiens.
Experiment [18] concerns the target T6, Microphthalmia-associated transcription factor (Homo sapiens, UniProt O75030).
T6 sequence (O75030 whole entry): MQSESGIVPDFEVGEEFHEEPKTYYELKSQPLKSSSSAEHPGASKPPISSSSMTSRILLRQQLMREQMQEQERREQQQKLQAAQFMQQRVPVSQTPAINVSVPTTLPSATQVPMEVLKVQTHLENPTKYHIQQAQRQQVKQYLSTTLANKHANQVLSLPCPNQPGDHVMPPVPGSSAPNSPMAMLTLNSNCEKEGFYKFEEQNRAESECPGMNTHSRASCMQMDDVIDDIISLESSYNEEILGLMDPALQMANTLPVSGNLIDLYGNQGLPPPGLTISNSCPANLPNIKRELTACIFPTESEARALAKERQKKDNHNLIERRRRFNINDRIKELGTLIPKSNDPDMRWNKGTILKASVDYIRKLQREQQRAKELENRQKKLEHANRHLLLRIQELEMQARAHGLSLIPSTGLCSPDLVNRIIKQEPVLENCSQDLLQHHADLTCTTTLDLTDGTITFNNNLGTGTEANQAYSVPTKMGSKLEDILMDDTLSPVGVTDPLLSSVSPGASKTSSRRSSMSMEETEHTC
In words: reducers of TRPM1 reporter luminescence, concentration series – cell-based, SK-MEL-5, cherry-picked, set 3, MITF inhibitor project, dose response (AID 493073).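 Note: SK-MEL-5 melanoma cells with luciferase driven by the MITF target TRPM1 promoter.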 The class given is functional.

The subject of experiment [19] is BJ. Description: BJ-TERT-LT-ST fibroblast viability loss – cell-based, RAS-independent, luminescence, dose response (AID 1935).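 Note: BJ fibroblasts immortalized with TERT plus LT and ST oncogenes.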 The class given is functional. The note with it: Homo sapiens.
For experiment [20], the target named is NACHT, LRR and PYD domains-containing protein 3 (Homo sapiens, UniProt Q96P20). Description: NALP3 inhibitors in yeast, dose response, luminescent (AID 488799). In kind it is functional.
For experiment [21], the target named is T7, SUMO-activating enzyme (Homo sapiens, UniProt Q9UBT2). Description: blockers of SAE1/SAE2–UBC9 SUMO transfer – biochemical, HTRF, uHTS, primary screen (AID 2006). In kind it is protein-complex assay. In general terms: Time-resolved FRET reads energy transfer from a long-lived donor to a nearby acceptor.
Experiment [22] addresses T7, SUMO-activating enzyme. In words: blockers of UBC9-mediated SUMO conjugation – biochemical, AlphaScreen, SUMOylation inhibitor project, confirmation (AID 2018). The class given is functional.
The target of experiment [23] is DNA dC->dU-editing enzyme APOBEC-3G (Homo sapiens, UniProt Q9HC16). In words: Dose Response confirmation of small molecule APOBEC3G DNA Deaminase Inhibitors via a fluorescence-based single-stranded DNA deaminase assay. [Related pubchem assays (depositor defined):AID493012, AID493028]. In kind it is functional.
Experiment [24] deals with FAD-linked sulfhydryl oxidase ALR (Homo sapiens, UniProt P55789). Description: ALR-catalysed DTT oxidation blockers – biochemical, H2O2 detection, luminescence, cherry-pick, dose response (AID 493248).
Experiment [25] addresses DNA dC->dU-editing enzyme APOBEC-3A (Homo sapiens, UniProt P31941). Description: A3A deaminase inhibition for selectivity – biochemical, dose response (AID 504722). In kind it is functional.
Another experiment concerns the target Prothrombin (Homo sapiens, UniProt P00734). Description: Thrombin 1536 HTS Dose Response Confirmation. [Related pubchem assays: 1046 (Thrombin 1536 HTS; hits were confirmed in this assay)]. The class given is functional.
The target of experiment [26] is NACHT, LRR and PYD domains-containing protein 1 (Homo sapiens, UniProt Q9C000). In words: NALP1 inhibitors in yeast, dose response, luminescent (AID 488860). In kind it is functional.
The subject of another experiment is Saccharomyces cerevisiae. In words: S. cerevisiae Caspase-1/ASC signal blockers IC50, NALP1 inhibitor project selectivity test (AID 488863). The class given is functional, organism-based.

Activity calls are given as the source filed them.

T2 sequence (P41145 whole entry): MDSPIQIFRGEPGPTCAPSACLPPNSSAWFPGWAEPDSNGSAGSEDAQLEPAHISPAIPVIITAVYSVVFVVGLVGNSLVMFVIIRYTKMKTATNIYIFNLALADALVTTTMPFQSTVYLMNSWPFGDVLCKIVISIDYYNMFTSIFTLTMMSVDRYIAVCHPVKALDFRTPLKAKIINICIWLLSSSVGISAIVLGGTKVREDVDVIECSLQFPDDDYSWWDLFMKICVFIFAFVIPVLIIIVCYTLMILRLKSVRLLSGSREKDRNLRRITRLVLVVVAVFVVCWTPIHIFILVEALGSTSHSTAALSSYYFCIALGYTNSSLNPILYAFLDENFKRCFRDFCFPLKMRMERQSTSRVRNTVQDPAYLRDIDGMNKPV
T1 sequence (P35372 whole entry): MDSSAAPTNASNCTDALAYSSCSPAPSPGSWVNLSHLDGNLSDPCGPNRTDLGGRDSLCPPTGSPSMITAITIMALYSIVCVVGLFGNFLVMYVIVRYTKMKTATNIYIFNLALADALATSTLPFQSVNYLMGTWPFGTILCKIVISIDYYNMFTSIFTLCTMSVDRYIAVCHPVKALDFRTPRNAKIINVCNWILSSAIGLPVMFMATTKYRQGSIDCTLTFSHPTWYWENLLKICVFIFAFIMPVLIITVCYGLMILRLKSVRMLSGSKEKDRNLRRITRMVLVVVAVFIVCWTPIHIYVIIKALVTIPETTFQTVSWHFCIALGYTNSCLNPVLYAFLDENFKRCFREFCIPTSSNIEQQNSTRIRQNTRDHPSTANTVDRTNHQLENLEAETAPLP
T3 sequence (P41143 whole entry): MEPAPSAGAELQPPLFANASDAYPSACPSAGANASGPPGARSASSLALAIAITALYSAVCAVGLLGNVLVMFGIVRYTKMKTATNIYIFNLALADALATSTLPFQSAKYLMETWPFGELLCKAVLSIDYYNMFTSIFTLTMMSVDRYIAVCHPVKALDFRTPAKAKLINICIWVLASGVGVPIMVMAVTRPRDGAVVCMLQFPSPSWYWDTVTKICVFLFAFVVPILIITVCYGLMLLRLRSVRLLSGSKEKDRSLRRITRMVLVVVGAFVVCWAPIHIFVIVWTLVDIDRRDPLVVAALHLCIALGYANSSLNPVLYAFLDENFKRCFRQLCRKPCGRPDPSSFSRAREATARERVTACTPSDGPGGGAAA
T7 sequence (Q9UBE0 whole entry): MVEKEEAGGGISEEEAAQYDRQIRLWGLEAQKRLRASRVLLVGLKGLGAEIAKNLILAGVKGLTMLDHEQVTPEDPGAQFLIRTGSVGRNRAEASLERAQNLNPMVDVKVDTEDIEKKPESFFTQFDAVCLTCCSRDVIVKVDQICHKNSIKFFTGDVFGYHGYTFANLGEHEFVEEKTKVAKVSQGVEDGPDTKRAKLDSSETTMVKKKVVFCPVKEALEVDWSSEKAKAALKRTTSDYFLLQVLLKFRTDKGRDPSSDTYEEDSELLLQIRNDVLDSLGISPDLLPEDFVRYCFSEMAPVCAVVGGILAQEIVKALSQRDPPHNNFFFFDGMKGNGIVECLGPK
T7 sequence (Q9UBT2 whole entry): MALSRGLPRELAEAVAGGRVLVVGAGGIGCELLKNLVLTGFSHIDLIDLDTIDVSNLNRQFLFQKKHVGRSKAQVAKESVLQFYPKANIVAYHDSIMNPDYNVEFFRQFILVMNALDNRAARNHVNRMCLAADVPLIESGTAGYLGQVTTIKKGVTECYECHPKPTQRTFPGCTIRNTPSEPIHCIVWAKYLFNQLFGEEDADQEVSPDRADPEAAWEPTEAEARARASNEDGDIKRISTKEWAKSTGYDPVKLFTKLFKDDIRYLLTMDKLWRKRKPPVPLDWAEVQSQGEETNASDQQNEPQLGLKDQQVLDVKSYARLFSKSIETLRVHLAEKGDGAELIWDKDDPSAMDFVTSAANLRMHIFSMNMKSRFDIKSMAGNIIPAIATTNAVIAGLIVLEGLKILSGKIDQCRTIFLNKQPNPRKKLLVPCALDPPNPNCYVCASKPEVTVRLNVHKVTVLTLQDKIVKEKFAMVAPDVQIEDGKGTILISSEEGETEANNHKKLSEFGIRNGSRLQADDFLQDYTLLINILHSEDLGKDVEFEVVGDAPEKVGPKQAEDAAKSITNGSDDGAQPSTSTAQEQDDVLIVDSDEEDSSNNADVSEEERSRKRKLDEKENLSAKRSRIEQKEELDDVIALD
Sequence of G-protein coupled receptor 55 (Q9Y2T6 whole entry): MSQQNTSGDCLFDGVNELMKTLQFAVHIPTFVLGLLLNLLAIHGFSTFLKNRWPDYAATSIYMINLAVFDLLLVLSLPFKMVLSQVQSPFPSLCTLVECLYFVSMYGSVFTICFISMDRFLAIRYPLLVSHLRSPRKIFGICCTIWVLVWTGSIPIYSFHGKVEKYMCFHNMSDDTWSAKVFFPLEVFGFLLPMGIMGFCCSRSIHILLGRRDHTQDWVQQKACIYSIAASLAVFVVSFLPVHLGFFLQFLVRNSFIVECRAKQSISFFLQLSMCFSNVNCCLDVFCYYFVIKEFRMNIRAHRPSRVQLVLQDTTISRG
Sequence of Diphosphomevalonate decarboxylase (Q9FD53 whole entry): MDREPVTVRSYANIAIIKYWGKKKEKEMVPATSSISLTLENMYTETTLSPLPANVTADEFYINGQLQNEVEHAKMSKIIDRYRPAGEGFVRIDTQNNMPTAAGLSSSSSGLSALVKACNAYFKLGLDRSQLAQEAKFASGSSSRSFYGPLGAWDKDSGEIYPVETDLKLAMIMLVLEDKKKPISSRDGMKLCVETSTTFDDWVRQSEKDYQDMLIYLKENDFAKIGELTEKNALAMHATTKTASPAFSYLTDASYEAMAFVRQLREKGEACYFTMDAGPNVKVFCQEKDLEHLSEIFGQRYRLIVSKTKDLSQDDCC
Sequence of Phosphomannomutase 2 (O15305 whole entry): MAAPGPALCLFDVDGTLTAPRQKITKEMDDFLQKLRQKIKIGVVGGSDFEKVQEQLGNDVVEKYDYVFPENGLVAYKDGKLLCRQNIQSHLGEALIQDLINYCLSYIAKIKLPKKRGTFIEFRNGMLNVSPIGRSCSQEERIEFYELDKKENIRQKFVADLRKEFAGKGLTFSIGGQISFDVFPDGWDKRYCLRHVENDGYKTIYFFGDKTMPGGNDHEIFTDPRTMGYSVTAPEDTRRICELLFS
Sequence of Phosphoethanolamine/phosphocholine phosphatase (Q8TCT1 whole entry): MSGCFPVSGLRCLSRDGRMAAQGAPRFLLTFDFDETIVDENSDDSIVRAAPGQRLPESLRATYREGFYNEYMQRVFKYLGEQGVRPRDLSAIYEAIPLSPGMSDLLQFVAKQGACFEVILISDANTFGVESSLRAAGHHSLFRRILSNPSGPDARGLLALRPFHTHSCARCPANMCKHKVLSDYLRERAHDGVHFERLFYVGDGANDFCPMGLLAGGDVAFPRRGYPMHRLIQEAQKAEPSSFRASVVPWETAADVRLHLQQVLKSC
Sequence of FAD-linked sulfhydryl oxidase ALR (P55789 whole entry): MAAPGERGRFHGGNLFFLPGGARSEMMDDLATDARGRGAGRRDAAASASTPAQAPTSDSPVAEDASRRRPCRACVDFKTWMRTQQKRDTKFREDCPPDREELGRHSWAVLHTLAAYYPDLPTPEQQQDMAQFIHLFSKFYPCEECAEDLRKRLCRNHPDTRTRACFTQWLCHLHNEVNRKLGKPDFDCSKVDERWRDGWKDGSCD
Sequence of DNA dC->dU-editing enzyme APOBEC-3A (P31941 whole entry): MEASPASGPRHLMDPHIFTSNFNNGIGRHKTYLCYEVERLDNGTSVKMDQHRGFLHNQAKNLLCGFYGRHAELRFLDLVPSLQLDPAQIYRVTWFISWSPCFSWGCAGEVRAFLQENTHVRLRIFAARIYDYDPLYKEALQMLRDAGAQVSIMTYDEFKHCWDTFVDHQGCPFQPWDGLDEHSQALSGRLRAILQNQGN
Sequence of NACHT, LRR and PYD domains-containing protein 3 (Q96P20 whole entry, the tested form may be a part): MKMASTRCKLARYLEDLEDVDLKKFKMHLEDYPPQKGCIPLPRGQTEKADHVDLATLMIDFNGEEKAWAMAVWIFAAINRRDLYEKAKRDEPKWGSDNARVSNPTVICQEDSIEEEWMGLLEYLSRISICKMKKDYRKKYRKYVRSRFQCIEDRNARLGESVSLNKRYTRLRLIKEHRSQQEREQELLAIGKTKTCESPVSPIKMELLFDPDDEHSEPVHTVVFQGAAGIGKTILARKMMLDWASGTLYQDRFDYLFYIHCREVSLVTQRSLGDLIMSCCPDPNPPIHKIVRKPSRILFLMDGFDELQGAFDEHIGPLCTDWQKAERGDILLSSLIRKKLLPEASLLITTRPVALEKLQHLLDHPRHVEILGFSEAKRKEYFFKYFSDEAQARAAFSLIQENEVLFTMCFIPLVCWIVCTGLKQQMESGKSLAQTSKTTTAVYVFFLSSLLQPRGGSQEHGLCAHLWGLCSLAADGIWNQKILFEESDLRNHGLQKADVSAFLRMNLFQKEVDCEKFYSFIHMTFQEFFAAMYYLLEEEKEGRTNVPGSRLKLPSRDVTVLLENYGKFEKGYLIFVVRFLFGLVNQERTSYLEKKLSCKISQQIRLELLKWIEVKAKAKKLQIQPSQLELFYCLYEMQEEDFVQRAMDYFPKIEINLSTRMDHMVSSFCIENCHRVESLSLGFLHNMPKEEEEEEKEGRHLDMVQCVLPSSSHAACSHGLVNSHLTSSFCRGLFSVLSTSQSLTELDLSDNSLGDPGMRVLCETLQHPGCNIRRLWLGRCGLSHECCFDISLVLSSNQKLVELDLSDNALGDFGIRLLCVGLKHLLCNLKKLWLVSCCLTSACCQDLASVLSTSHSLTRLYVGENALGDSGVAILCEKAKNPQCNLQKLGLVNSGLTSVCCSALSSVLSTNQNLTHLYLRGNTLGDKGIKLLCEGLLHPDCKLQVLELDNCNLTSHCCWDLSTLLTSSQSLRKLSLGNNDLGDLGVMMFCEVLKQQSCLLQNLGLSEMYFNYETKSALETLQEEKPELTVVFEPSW

The EC50 is the concentration at which the effect is half-maximal. One may read the IC50 as the concentration needed to halve the response being measured. `Oc1c(C=Nc2cccc3cccnc23)sc2ccccc12`: the EC50 (at Mu-type opioid receptor [1]; in [3]; in experiment [7]) was > 32 µM (inactive) each time. Moreover, the IC50 is 8.77 µM (active) in experiment [2], 1.01 µM (active) in [4], 0.533 µM (active) in experiment [5] and 0.897 µM (active) at Mu-type opioid receptor [6].

For `CCOc1ccc(Br)cc1CSC(=N)N`, in experiment [8], the IC50 was > 300 µM (active).

Take `O=C(NCc1ccccc1)c1cccc(-n2sc3ccccc3c2=O)c1`: the IC50 at Phosphomannomutase 2 is 17.8 µM (active); in experiment [9] it was 2.25 µM (active); in [10] it was > 100 µM (inactive); in experiment [11] it was 2.33 µM (inactive); in [12], 4.74 µM (active).

Usually AC50 stands for the concentration at which the activity in the assay is half-maximal. Consider `COc1ccc(C(=O)/C=C/C(=O)N(CC(=O)NC2CCCCC2)Cc2ccccc2OC)c(O)c1`, for which the EC50 is > 32 µM (inactive) in experiment [13]; 2.2 µM (active) with BJ [14]; 3.39 µM (active) in experiment [15]; 3.7 µM (active) in the experiment on BJ [16]; 5.02 µM (inconclusive) with BJ [17]; 2.57 µM (inconclusive) in the experiment on BJ [19]. Moreover, the AC50 in [18] is 4.04 µM (active).

In the case of `CN(CC(=O)N1CCc2ccccc2C1)c1ccccc1`, in experiment [20], the IC50 was > 100 µM (inactive).

On to `C=CCOc1c(Br)cc(/C=C2\SC(Nc3ccccc3)=NC2=O)cc1OC`, for which the IC50 at SUMO-activating enzyme [21] is 12 µM (active); at SUMO-activating enzyme [22], 29.9 µM (active).

As for `CCn1c(-c2ccc(Cl)cc2)n[nH]c1=S`, the IC50 in experiment [23] is 5.43 µM (active); in [25], > 100 µM (inactive). For the same molecule, the AC50 in experiment [24] is 6.5 µM (active).

For `COCC(=O)n1nc(-c2ccc(Cl)cc2)nc1NCc1ccc(F)cc1`, the results for the IC50 (on Prothrombin; in experiment [26]; in the experiment with Saccharomyces cerevisiae) were 1.8 µM (active), > 100 µM (inactive) and > 100 µM (inactive), respectively.
